Results published in ChEMBL document CHEMBL1201862, “PubChem BioAssay data set” (2004).
Values joined by “and” are separate entries in the source; they are usually repeats but may differ in a detail not shown here. Equal entries are not always repeated. Active and inactive are the calls of the source.

Assays:
[1] = biological target: T1, Streptokinase A (Streptococcus pyogenes serotype M1, UniProt P10520); experiment: S. pyogenes streptokinase expression inhibitors, potency, dose response, plasminogen activation absorbance, OD405 (AID 1914); assay type: functional, Streptococcus pyogenes M1 GAS;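 further: secreted streptokinase activity via plasminogen activation per viability signal from cell pellet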
T1 sequence (P10520 whole entry): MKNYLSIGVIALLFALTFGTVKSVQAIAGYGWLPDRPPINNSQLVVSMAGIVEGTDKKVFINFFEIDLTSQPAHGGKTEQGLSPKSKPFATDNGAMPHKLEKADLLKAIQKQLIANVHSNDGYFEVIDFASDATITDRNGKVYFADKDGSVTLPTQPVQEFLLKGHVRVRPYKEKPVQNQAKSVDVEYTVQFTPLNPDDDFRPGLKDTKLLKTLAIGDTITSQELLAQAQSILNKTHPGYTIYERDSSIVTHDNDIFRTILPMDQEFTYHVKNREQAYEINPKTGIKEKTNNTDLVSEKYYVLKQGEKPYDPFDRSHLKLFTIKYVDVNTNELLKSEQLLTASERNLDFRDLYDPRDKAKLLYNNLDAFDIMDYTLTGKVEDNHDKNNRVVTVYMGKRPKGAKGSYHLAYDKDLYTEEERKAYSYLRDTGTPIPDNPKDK

[2] = system: Streptococcus sp. 'group A'; experiment: growth inhibition of control SK(-) GAS strain, dose response, counter-screen for streptokinase expression inhibitor project, luminescence, kanamycin, BacTiterGlo, confirmation (AID 1900); assay type: functional, organism-based
[3] = system: Streptococcus; experiment: Group A Streptococcus viability loss, dose response, counter-screen for streptokinase expression inhibitor project, luminescence, BacTiterGlo (AID 1915); assay type: functional, organism-based;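 further: potency for reduction of bacterial viability or growth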
[4] = biological target: Cytochrome P450 2C19 (Homo sapiens, UniProt P33261); experiment: Cytochrome panel assay with activity outcomes. Panel member name: p450-cyp2c19 Compounds with AC50 equal or less than 10 uM are considered active; assay type: functional
[5] = biological target: Cytochrome P450 3A4 (Homo sapiens, UniProt P08684);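 further: CYP3A4 tested as one member of a cytochrome P450 panel screen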
[6] = biological target: T2, Cytochrome P450 1A2 (Homo sapiens, UniProt P05177);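 further: PubChem cytochrome P450 panel assay, CYP1A2 panel member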
T2 sequence (P05177 whole entry): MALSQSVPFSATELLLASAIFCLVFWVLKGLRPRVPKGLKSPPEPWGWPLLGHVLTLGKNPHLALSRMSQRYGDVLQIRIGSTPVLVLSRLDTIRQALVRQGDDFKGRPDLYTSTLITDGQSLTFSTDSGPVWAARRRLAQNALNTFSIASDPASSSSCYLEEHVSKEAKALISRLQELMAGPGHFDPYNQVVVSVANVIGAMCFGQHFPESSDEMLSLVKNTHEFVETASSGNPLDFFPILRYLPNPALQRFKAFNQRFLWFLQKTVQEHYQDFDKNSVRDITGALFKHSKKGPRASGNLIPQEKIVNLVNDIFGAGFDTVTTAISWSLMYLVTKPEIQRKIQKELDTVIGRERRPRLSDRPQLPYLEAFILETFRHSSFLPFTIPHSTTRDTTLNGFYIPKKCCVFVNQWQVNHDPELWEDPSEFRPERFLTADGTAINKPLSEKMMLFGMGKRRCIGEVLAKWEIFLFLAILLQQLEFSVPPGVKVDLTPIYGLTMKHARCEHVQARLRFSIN

[7] = P. falciparum Dd2 growth inhibitors, dose response, SYBR Green, cherry-picked samples (AID 1159567); assay type: functional, cell-based

Sequence of Cytochrome P450 3A4 (P08684 whole entry): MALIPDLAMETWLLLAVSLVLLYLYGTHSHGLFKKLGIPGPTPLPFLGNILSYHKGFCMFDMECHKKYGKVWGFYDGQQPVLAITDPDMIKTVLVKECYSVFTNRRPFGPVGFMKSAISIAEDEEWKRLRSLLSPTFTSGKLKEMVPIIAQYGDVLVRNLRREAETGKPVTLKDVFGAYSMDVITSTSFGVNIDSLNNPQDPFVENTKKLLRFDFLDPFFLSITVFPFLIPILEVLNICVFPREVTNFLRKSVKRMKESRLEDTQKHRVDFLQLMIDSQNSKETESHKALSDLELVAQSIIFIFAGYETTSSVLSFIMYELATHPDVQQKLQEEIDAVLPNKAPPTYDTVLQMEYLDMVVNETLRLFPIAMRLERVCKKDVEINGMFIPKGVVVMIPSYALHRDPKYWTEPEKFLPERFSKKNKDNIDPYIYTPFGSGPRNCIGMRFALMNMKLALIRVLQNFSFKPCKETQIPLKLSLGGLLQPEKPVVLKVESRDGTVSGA
Sequence of Cytochrome P450 2C19 (P33261 whole entry): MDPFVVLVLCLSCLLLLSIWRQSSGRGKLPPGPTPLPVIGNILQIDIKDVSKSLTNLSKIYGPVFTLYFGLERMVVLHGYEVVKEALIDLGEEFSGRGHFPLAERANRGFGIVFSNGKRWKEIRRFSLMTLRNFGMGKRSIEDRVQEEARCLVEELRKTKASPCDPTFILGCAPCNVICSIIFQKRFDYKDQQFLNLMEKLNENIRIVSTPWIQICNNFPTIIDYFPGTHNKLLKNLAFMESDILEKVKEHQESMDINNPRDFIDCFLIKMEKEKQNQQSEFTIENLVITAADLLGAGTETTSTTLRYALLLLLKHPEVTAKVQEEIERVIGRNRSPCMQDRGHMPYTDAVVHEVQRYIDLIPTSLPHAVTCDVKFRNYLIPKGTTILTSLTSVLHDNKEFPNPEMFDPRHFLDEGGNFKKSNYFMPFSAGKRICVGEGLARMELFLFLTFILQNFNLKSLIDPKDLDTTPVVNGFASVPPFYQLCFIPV

Structure (SMILES)	EC50 [1]	EC50 [2]	EC50 [3]	AC50 [5]	other results
Brc1ccc(Nc2ncnc3[nH]ncc23)cc1	> 150 µM (not active)	5.77 µM (active)	143 µM (active)	–	–
O=S(=O)(Cc1nnnn1-c1ccccc1)c1ccc(F)cc1	> 150 µM (not active)	> 150 µM (not active)	> 150 µM (not active)	–	–
CC(=O)Nc1ccc(C2C(=O)c3ccccc3C2=O)cc1	> 150 µM (not active)	31.3 µM (active)	> 150 µM (not active)	–	–
Cc1ccc(C)c(N(CC(=O)NC2CCCC2)C(=O)c2cc3cc4cccc(C)c4nc3s2)c1	–	–	–	2.51 µM (inconclusive)	AC50 ([4]; read-out: AC50): 6.31 µM (inconclusive)
O=C(CSc1nnc(NC(=O)c2ccccc2[N+](=O)[O-])s1)NC1CCCC1	> 150 µM (not active)	> 150 µM (not active)	> 150 µM (not active)	–	–
O=C1/C(=C\c2ccccc2)C[C@@]2(O)[C@H]3Cc4ccc(O)c5c4[C@@]2(CCN3CC2CC2)[C@@H]1O5	–	–	–	31.6 µM (inconclusive)	AC50 ([4]; read-out: AC50): 15.8 µM (inconclusive); AC50 [6]: 31.6 µM (inconclusive)
Oc1cc2c(c(Cl)c1O)CCNC[C@H]2c1ccccc1	–	–	–	39.8 µM (inconclusive) and 12.6 µM (inconclusive)	–
CN(C)Cc1ccccc1-c1cc(NCc2cccs2)ncn1	–	–	–	10 µM (inconclusive)	–
COc1ccccc1CCNC(=O)C(=O)c1cn(CC(=O)N2CCCC2)c2ccccc12	> 150 µM (not active)	> 150 µM (not active)	> 150 µM (not active)	–	–
Cc1oc2c(C)c(O)ccc2c(=O)c1-c1ccc2ccccc2n1	–	–	–	7.94 µM (inconclusive)	AC50 ([4]; read-out: AC50): 2.82 µM (inconclusive)
C[C@@H](C(=O)Nc1ccc2ccccc2c1)[C@H]1C[C@]1(C)[C@H](NC(=O)c1cnccn1)c1ccccc1	–	–	–	–	AC50 [6]: 25.1 µM (inconclusive)
CC(C)NC(=O)N1CCC2(CC1)CCN(C(=O)c1ccncc1)CC2	–	–	–	25.1 µM (inconclusive)	–
CC(=O)NCCNc1ncnc2ccc(-c3ccccc3C#N)cc12	–	–	–	25.1 µM (inconclusive)	AC50 ([4]; read-out: AC50): 10 µM (inconclusive)
CN(C)c1ncc2nc(CCc3ccccc3)c(=O)n(CCC#N)c2n1	–	–	–	20 µM (inconclusive)	–
Cc1ccc(Cn2nc(C)c(NC(=O)c3cc(-c4ccco4)on3)c2C)cc1	–	–	–	–	AC50 [6]: 39.8 µM (inconclusive)
CCOC(=O)N1CCN(C(=O)c2cc3n(n2)C(C(F)(F)F)CC(c2ccc4c(c2)OCO4)N3)CC1 (stereo not drawn)	> 150 µM (not active)	62.1 µM (active)	> 150 µM (not active)	–	–
Cc1ccc(CNC(=O)COC(=O)c2cnccn2)cc1	–	–	–	17.8 µM (inconclusive)	AC50 [4]: inconclusive
CCc1ccc(CNc2ccc3c(c2)ncn3C(C)(C)C)cc1	> 150 µM (not active)	10.7 µM (active)	> 150 µM (not active)	–	–
Cc1cccc(NC(=O)NCc2ccc3c(c2)OCO3)c1	> 150 µM (not active)	> 150 µM (not active)	> 150 µM (not active)	–	–
CC(C)Oc1cccc(C(=O)NC(=S)N2CCN(c3ccc(C(F)(F)F)cc3[N+](=O)[O-])CC2)c1	–	–	–	14.1 µM (inconclusive)	–
CNc1ncnc2ccc(-c3ccccc3C#N)cc12	–	–	–	12.6 µM (inconclusive)	–
O=c1cnc2cnc(Oc3ccccc3)nc2n1Cc1ccc(F)cc1	–	–	–	20 µM (inconclusive)	–
COCC1CCCCN1C(=O)c1ccc2oc(CCCc3ccccc3)nc2c1 (stereo not drawn)	> 150 µM (not active)	98.8 µM (active)	> 150 µM (not active)	–	–
COc1ccc(C(=O)c2ccc(N3CCN(C4CC(=O)NC4=O)CC3)cc2)cc1F (stereo not drawn)	> 150 µM (not active)	2.99 µM (active)	33.3 µM (active)	–	–
COc1ccc(N(CC(=O)NCCSCc2cccc(Cl)c2)S(C)(=O)=O)cc1Cl	23.2 µM (active)	13 µM (active)	79.6 µM (active)	–	–

Structure (SMILES)	EC50 [1]	EC50 [2]	EC50 [3]	AC50 [5]	other results
c1cc(C2N3CCCN2CC3)ccn1 (stereo not drawn)	–	–	–	–	AC50 [4]: inconclusive; AC50 [6]: 1.26 µM (inconclusive)
O=C(NC(=S)NNC(=O)c1cccs1)c1ccco1	> 150 µM (not active)	7.02 µM (active)	36.2 µM (active)	–	–
CCCOc1ccc(OCCNC2CCCC2)cc1	–	–	–	–	AC50 ([4]; read-out: AC50): 31.6 µM (inconclusive); AC50 [6]: 14.1 µM (inconclusive)
Cc1nc(N2CCN(c3ccccc3O)CC2)c2c(-c3ccccc3)csc2n1	34.4 µM (active)	15.1 µM (active)	> 150 µM (not active)	–	–
O=C(CNC1CCCCCC1)Nc1ccccc1N1CCCCC1	–	–	–	–	AC50 [6]: 14.1 µM (inconclusive)
CC(CCc1ccccc1)NC(=O)/C=C/c1ccccc1 (stereo not drawn)	–	–	–	25.1 µM (inconclusive)	–
N#Cc1ccc(CN2CCC3(CC2)CCN(S(=O)(=O)c2ccccc2)CC3)cc1	–	–	–	20 µM (inconclusive)	–
CC(C)=NO[C@@H](C)CN1CCCCc2nc(C)c(C)cc21	–	–	–	3.98 µM (inconclusive)	–
COC(=O)c1ccc(Oc2nc3ccccc3n3c(C)nnc23)cc1	> 150 µM (not active)	3.82 µM (active)	61.2 µM (active)	–	–
Cc1cc(C)cc(C(=O)N2CCC(CCC(=O)NC3CC3)CC2)c1	> 150 µM (not active)	> 150 µM (not active)	> 150 µM (not active)	–	–
O=C(O)CCCc1ccc2ccccc2c1	–	–	–	–	AC50 [6]: 3.16 µM (inconclusive)
COc1cc(C(=O)Nc2ccc3c(c2)OCCO3)c(-n2cnnn2)cc1OC	–	–	–	25.1 µM (inconclusive)	AC50 [4]: inconclusive; AC50 [6]: 2.51 µM (inconclusive)
CO/C(O)=C1\C(C)=NC2=C(C(=O)c3ccccc32)C1c1ccc(-c2ccc(C(=O)O)cc2)o1 (stereo not drawn)	> 150 µM (not active)	3.77 µM (active)	69 µM (active)	–	–
C[C@@H]1CN([C@H](C)CO)C(=O)c2cccc(NS(=O)(=O)c3ccccc3)c2O[C@H]1CN(C)Cc1ccc(-c2ccccc2)cc1	–	–	–	–	AC50 [7]: 3.68 µM (active)
O=C(c1ccccc1F)N1CC[C@H]2[C@H](CO)Nc3ccc(C#Cc4ccc(F)cc4)cc3[C@H]21	–	–	–	–	AC50 [7]: 4.96 µM (active)
O=C(Nc1cccc(F)c1)N[C@@H]1CC[C@H](CCNS(=O)(=O)c2cccc(Cl)c2)O[C@H]1CO	–	–	–	–	AC50 [7]: 31.2 µM (active)
COc1cccc(-c2ccc3c(c2)[C@@H]2[C@@H](CCN2C(=O)C2CCCCC2)[C@H](CO)N3)c1	–	–	–	–	AC50 [7]: 4.18 µM (active)
O=C(C[C@H]1C[C@H]2c3cc(NC(=O)Cc4ccncc4)ccc3O[C@H]2[C@H](CO)O1)NCc1ccccc1	–	–	–	–	AC50 [7]: 4.55 µM (active)
COc1ccc2c3c([nH]c2c1)[C@H](CO)N(Cc1cc(F)ccc1F)CC31CN(C(=O)C2CCC2)C1	–	–	–	–	AC50 [7]: 7.04 µM (active)
OC[C@@H]1CC[C@@H]2O[C@H](CCc3ccc(C#Cc4ccccc4)cc3)[C@H](n3cc(-c4ccccc4)nn3)C[C@@H]2O1	–	–	–	–	AC50 [7]: 3.86 µM (active)
COc1ccc2c3c([nH]c2c1)[C@H](CO)N(Cc1ccc(F)cc1)CC31CCN(C(C)=O)CC1	–	–	–	–	AC50 [7]: 5.92 µM (active)
C[C@@H]1CN([C@@H](C)CO)C(=O)c2c(c3ccccc3n2C)-c2ccccc2CO[C@H]1CN(C)C(=O)Cc1ccccc1	–	–	–	–	AC50 [7]: 5.21 µM (active)
C/C=C/c1ccc([C@H]2[C@@H](CO)N(C(=O)CC)[C@@H]2CNCC2CCCCC2)cc1	–	–	–	–	AC50 [7]: 4.04 µM (active)
CN1CCN([C@@H]2Cc3ccccc3Sc3ccc(Cl)cc32)CC1	–	–	–	–	AC50 ([4]; read-out: AC50): 25.1 µM (inconclusive); AC50 [6]: 12.6 µM (inconclusive)
CC(C)=CCC/C(C)=C/CC/C(C)=C/CSc1ccccc1C(=O)O [SALIRASIB]	–	–	–	31.6 µM (inconclusive)	–
